This is an account of results in patent US10758513B2, “Modulators of mitochondrial protein import” (THE REGENTS OF THE UNIVERSITY OF CALIFORNIA, priority 2011, dated 2020).

Series [1] deals with mouse liver mitochondria. The series can be described thus: Import of radiolabeled precursors into isolated mouse liver mitochondria. The class given is biochemical. Further details: import of AAC: dose or concentration left out as unconfirmed. As for the experimental part:
Mitochondria were purified from yeast cells grown in YPEG or selective SEG medium as described in previous studies (Glick B S, Pon L A (1995). Methods Enzymol 260:213-223). Yeast cultures were kept at a constant 25° C. with vigorous shaking during growth. After concentration was measured by BCA assay, mitochondria were stored in 25 mg/ml aliquots at −80° C. Mammalian mitochondria were isolated from 2-4 freshly excised mouse livers by differential centrifugation. Briefly, isolated livers were washed 3× with cold PBS and then suspended in 4-5 mL isolation buffer (70 mM Sucrose, 220 mM mannitol, 2rnM HEPES-KOH, pH 7.4) per gram of tissue. Livers were first chopped into small pieces and then dounced 5× using a teflon dounce. Homogenized material was then centrifuged at 1,000 RPM for […] in a clinical centrifuge and supernatants were transferred to fresh tubes. Centrifugation at 1,000 RPM for 10 min was then repeated and supernatants were transferred to microfuge tubes. Next, supernatant material was spun for 10 min at 800×g (this process was repeated a second time). The supernatants from these steps were subjected to a high-speed (12,000×g for 20 min) spin to pellet heavy membrane fractions. Pellets were washed in isolation buffer and spun again (12,000×g for 20 min). After the final centrifugation step, supernatants were discarded and heavy membrane fraction was resuspended in mammalian import buffer (250 mM sucrose, 5 mM magnesium acetate, 80 mM potassium acetate, 10 mM sodium succinate, 1 mM dithiothreitol, 0.1 mM ADP, 20 mM Hepes-KOH, pH 7.4) as described in Johnston A J, et al. (2002), J Biol Chem 277:42197-42204 and kept on ice. All subsequent imports were performed within 1 hour of isolation of mammalian mitochondria. Mitochondrial concentrations were determined by BCA assay.
Prior to import into purified mitochondria, ^35S-methionine and cysteine labeled proteins were generated with TNT Quick Coupled Transcription/Translation kits (Promega) and plasmids carrying the gene of interest. Transcription of genes was driven by either a T7 or SP6 promoter. […]

The subject of series [2] is tim23 mutant. The series can be described thus: Yeast growth inhibition (MIC50), tim23 mutant. Type of series: cell-based. The conditions noted are these: Saccharomyces cerevisiae; disrupted for prd5 and snq2.
In series [3] the target is T1, Erv1 (Saccharomyces cerevisiae, UniProt P27882).
T1 construct: made in house
T1 sequence (P27882 1-189): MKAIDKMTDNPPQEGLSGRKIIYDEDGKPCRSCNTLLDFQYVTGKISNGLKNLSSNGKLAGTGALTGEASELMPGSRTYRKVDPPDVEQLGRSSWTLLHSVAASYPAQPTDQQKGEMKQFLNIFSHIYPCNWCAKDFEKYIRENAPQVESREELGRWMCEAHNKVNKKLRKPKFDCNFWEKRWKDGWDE
The series can be described thus: Reconstitution of substrate oxidation with Mia40 and Erv1. Type of series: biochemical, yeast. The conditions noted are these: after three hours; DMSO control approximately 80%. As for the experimental part: (A) Mitochondria from a strain expressing C-terminal histidine-tagged Erv1 were incubated with 50 μM MitoBloCK-6 or 1% DMSO for 30 min at 25° C. followed by solubilization in 1% digitonin buffer. As a control, 100 μg of extract was withdrawn (T), and 500 μg lysate was incubated with Ni+^2-agarose beads. The beads were washed and bound proteins (B) were eluted with SDS-PAGE sample buffer. To test effectiveness of binding, 100 μg of the unbound protein fraction (S) was also included. Proteins were analyzed by immunoblotting with polyclonal antibodies against Mia40, Erv1, and cyt c. […] Oxidized and reduced Tim13 were detected by non-reducing SDS-PAGE and immunoblotting with antibodies against Tim13.
Reconstitution studies with reduced Tim13 were performed as described previously (Tienson et al., 2009). […] H2O2 levels in the reconstitution assays were measured using the Amplex Red Hydrogen Peroxide/Peroxidase Assay kit according to the manufacturer's protocol (Dabir et al., 2007) (Invitrogen). […] The Erv1 or ALR-catalyzed reduction of 02 to H2O2 was measured by a FlexStation plate reader (Molecular Devices) controlled via the SoftMax Pro software package (Molecular Devices) for data acquisition. […]

Series [4] concerns the target T2, ALR (Homo sapiens, UniProt P55789).
T2 construct: Recombinant long form ALR, residues 1 to 205, was purified under native conditions; made in house
Nature of the series: In vitro ALR activity, Amplex Red-HRP assay. The class given is biochemical.

The subject of series [5] is HeLa cells. Nature of the series: MTT cell viability assay in HeLa cells (MitoBloCK-6). The class given is cell-based. The conditions noted are these: 100 μM. As for the experimental part:
Measurements for cell viability were made with a MTT based toxicology assay kit (Sigma) as described previously (Hasson et al., 2010). Briefly, HeLa cells were grown in 24-well tissue culture dishes to 80% confluency. Cells were then treated with DMSO or MitoBloCK-6 in complete medium for 12 h and reacted with MTT solution supplement for additional 4 hr as described in manufacturer's protocols. Percentage viability of each cell sample was calculated as: [(absorbance of vehicle treated cells)−(absorbance of MitoBloCK-6 treated cells)/(absorbance of vehicle treated cells)]×100.

Each structure is given as a SMILES string.

T2 sequence (P55789 whole entry, the tested form may be a part): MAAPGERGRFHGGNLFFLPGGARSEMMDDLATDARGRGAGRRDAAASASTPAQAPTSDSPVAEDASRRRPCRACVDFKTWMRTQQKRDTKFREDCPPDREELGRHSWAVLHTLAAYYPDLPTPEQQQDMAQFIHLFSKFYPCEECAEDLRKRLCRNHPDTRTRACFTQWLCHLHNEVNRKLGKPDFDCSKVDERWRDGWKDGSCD

Turning to `NC(=S)N/N=C/c1c(O)c(Br)cc2oc3c(c12)CCCC3` [MitoBloCK-1], in series [1], the “import of AAC” value was “inhibited”, the “import of Hsp60” value is on record as “not altered” and the “import of Su9-DHFR” value is listed as “not altered”. For the same compound, the MIC50 (in general, the lowest concentration that inhibits either 50% of growth or 50% of the strains tested, depending on the study) in series [2] is > 200 µM.
As to `Oc1c(Cl)cc(Cl)cc1/C=N/c1ccc(Nc2ccccc2)cc1` [MitoBloCK-6], the Tim13 oxidized in series [3] amounted to 15%. For the same compound, the IC50 (in general, the point on the concentration scale where inhibition reaches its midpoint) in series [4] amounted to 700 nM. Moreover, the “cell viability (MTT)” value in series [5] was “did not significantly reduce cell viability”.
